Results taken from patent US4816487A, “1-(2-hydroxyaryl)-alkane-1-on-oximes-procedure of preparation and use in pharmaceuticals” (Humboldt-Universitaet zu Berlin, priority 1985, dated 1989).
Each block holds one compound with its values, some of them ahead of it.

Assays:
[1] = molecular target: T1, lipoxygenase from rabbit reticulocytes (Oryctolagus cuniculus, UniProt P12530); assay: inhibition of activity of lipoxygenase from rabbit reticulocytes; assay type: biochemical; settings: for inhibition of rabbit reticulocyte lipoxygenase by known lipoxygenase inhibitors: concentration not given; for IC50: Table 3, in parentheses, read-out: I50-value, lipoxygenase from reticulocytes; for inhibition at 1000 µM: ultimate concentration 1.0 mM; for effect on reticulocyte lipoxygenase: ultimate concentration 1 mM
T1 construct: Lipoxygenase from rabbit reticulocytes was obtained in electrophoretically and immunologically pure form; from tissue; host or cells: rabbit reticulocytes
T1 sequence (P12530 1-663): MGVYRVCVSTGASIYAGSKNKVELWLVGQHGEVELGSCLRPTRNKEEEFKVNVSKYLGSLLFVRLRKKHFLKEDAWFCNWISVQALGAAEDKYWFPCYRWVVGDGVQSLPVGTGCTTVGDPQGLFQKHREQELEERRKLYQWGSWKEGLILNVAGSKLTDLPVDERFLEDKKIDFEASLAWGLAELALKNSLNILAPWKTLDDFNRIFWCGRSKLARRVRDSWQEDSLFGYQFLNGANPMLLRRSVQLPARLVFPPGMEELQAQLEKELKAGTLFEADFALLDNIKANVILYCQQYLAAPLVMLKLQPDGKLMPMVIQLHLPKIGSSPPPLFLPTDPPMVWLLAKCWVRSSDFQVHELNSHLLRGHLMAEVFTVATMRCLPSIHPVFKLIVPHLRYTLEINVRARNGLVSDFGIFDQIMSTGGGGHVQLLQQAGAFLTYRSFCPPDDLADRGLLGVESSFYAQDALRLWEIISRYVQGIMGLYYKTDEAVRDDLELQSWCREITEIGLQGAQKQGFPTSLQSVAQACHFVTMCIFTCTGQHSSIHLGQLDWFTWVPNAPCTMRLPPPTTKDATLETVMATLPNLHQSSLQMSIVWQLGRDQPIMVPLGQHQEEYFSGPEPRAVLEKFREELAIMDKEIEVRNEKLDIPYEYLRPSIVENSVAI
Method: (§1) Persuasive evidence to inhibition of lipoxygenase was produced by a suitable animal lipoxygenase which had been isolated from rabbit reticulocytes, using a method by Rapoport and coworkers /S. M. Rapoport et al., Eur. J. Biochem. 96, 545 (1979)/. A final concentration of 1 mM of most of the compounds, according to this invention, produced inhibition of 90 percent or more (cf. Example 20). Significant inhibition was even recordable from a final concentration of 0.1 mM of some of the compounds, according to this invention. Substance concentrations were varied to determine the titration curves of inhibition and from these the half-inhibition concentrations (I50 -values). A half-inhibition concentration of 7 μM was established for 5-methyl-2-hydroxy-laurophenone-oxime, an oxime of high anti-asthmatic effectiveness.
Inhibition of activity of lipoxygenase from rabbit reticulocytes:
(§2) Lipoxygenase from rabbit reticulocytes was obtained in electrophoretically and immunologically pure form by means of the method described in the literature /S. M. Rapoport et al., Eur. J. Biochem. 96, 545 (1979)/. Lipoxygenase activity was determined at 25° C. by amperometric measurement of oxygen consumption by means of a Clark electrode in the following system: 0.1M potassium phosphate, pH 7.4, with 0.2-per-cent sodium cholate and 0.53 mM linoleic acid. The enzyme concentration was […] in the sample for measurement. The substances submitted for testing were dissolved in methyl glycol (fresh distillation in vacuum) and pre-incubated ten minutes with the enzyme at measurement temperature and in the absence of sodium cholate and linoleic acid. […] No remarkable inhibition occurred to control samples under these conditions. Enzyme reaction was started by addition of sodium cholate and linoleic acid. The titration curve of inhibition and, consequently, the concentrations required for inhibition by the order of 50 per cent were determined by variation of active substance concentrations. For comparison, the compounds were tested also on commercial lipoxygenase-1 from soybean.

[2] = molecular target: T2, lipoxygenase-1 from soybean (Glycine max, UniProt P08170); assay: inhibition of soybean lipoxygenase-1; assay type: biochemical; settings: read-out: Inhibition (percent) of lipoxygenase from soybean; for inhibition at 1000 µM: ultimate concentration 1.0 mM
T2 construct: purchased
T2 sequence (P08170 1-839): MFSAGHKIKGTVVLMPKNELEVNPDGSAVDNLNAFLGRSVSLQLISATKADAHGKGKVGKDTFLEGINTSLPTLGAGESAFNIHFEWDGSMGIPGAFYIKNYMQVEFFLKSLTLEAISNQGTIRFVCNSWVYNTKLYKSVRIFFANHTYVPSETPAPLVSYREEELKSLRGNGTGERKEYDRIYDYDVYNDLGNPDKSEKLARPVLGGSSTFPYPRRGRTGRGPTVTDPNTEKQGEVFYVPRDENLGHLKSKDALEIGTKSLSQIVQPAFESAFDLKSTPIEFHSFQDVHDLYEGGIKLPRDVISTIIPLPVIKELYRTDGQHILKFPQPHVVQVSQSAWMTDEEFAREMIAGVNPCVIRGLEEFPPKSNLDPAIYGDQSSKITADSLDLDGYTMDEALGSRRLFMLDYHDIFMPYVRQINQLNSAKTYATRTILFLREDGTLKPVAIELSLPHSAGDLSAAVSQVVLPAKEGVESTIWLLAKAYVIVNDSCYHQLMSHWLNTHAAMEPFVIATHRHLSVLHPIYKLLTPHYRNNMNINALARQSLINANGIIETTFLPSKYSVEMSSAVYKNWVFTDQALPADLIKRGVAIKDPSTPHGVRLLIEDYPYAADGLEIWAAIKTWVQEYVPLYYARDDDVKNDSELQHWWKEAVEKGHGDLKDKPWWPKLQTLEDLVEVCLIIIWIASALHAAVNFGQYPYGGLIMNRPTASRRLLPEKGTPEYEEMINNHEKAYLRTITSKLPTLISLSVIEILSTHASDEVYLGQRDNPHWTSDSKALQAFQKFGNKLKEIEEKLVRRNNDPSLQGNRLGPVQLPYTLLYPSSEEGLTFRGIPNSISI
Method: as §1, §2

thrombocyte aggregation = assay: inhibition of thrombocyte aggregation induced by arachidonic acid or platelet activation factor; assay type: cell-based, man
Method: Since inhibition of lipoxygenase was identified as molecular point of attack of these new medicaments, studies were conducted also into their action upon thrombocyte aggregation. The substantive role played by the lipoxygenase route in the irreversibility of thrombocyte aggregation is well established at present/C. E. Dutilh et al., Prostaglandins and Medicine 6, 111 (1981)/. A key role in the pathogenesis of thrombotic diseases is attributed to irreversibility of thrombocyte aggregation. […] In the experiments conducted for this invention, thrombocyte aggregation was triggered off either by arachidonic acid or by the platelet activation factor (PAF-acether).
Inhibition of thrombocyte aggregation induced by arachidonic acid or the platelet activation factor:
The compounds were tested for antithrombotic and thrombolytic activity in vitro on the authentic cell system of man. High-thrombocyte plasma was obtained from the blood of clinically healthy donors by 1000×g centrifugation. Thrombocyte aggregation was measured by means of an aggregometer on the basis of diffuse scatter of light or absorption of light by resulting cell aggregates. The high-thrombocyte plasma was pre-incubated with the active substances at 37° C. for three minutes. Thrombocyte aggregation was then triggered off by alternative addition of 0.8 mM of arachidonic acid or 1 μM of platelet activation factor (PAF acether). […]

sensitised guinea pig = settings: cited: C. Armour and D. M. Temple, Agents Action 12, 285 (1982); cited from earlier work
[3] = read-out: Inhibition (percent) of lipoxygenase from reticulocytes

- IC50 [1]: 260 µM
- inhibition at 1000 µM [1, 3]: 100%
- inhibition at 1000 µM [2]: 68%
Structure (SMILES): CCCCCCOc1ccc(C(C)=NO)c(O)c1 [4-hexyloxy-2-hydroxy-acetophenone-oxime]
- retardation of thrombocyte aggregation (thrombocyte aggregation; 44 μM): retarded aggregation by about two minutes
- inhibition of thrombocyte aggregation (thrombocyte aggregation; 60 μM): total inhibition

- inhibition of rabbit reticulocyte lipoxygenase by known lipoxygenase inhibitors [1]: inhibited with high effectiveness
Structure (SMILES): O=[N+]([O-])c1ccc(O)c(O)c1 [4-nitrocatechol, reference compound]

- inhibition of rabbit reticulocyte lipoxygenase by known lipoxygenase inhibitors [1]: inhibited with high effectiveness
Structure (SMILES): CCCCCC#CCC#CCC#CCC#CCCCC(=O)O [5,8,11,14-eicosa-tetraynoic acid, reference compound]

- inhibition of rabbit reticulocyte lipoxygenase by known lipoxygenase inhibitors [1]: inhibited with high effectiveness
Structure (SMILES): CCCCCCCCC#CCC#CCC#CCCCC(=O)O [5,8,11-eicosatriynoic acid, reference compound]

- IC50 [1]: 300 µM
- inhibition at 1000 µM [1, 3]: 90%
- inhibition at 1000 µM [2]: 24%
Structure (SMILES): CCCCCC(=NO)c1cc(Cl)ccc1O [5-chloro-2-hydroxy-caprophenone-oxime]

- effect on reticulocyte lipoxygenase [1]: failed to have an effect
Structure (SMILES): O=C(O)c1cc(=O)c2c(OCC(O)COc3cccc4oc(C(=O)O)cc(=O)c34)cccc2o1 [disodium-cromoglycate, reference compound]
- comparable anti-asthmatic, anti-allergic, and anti-anaphylactic effects on a whole-animal model (sensitised guinea pig): have not even been known

The next lines start with the compound.

Structure (SMILES): COc1ccc(O)c(C(C)(C)C)c1 [3-tert.-butyl-4-hydroxy-anisol, reference compound]
- inhibition of rabbit reticulocyte lipoxygenase by known lipoxygenase inhibitors [1]: inhibited with high effectiveness

Structure (SMILES): CCCCCCCCCCCCCCCCOc1ccc(C(C)=NO)c(O)c1 [4-hexadecyloxy-2-hydroxy-acetophenone-oxime]
- IC50 [1]: 500 µM
- inhibition at 500 µM ([1]; ultimate concentration 0.5 mM, read-out: Inhibition (percent) of lipoxygenase from reticulocytes): 75%
- inhibition at 500 µM ([2]; ultimate concentration 0.5 mM): 38%

Structure (SMILES): CN1CCC(=C2c3ccccc3CC(=O)c3sccc32)CC1 [ketotifen, reference compound]
- effect on reticulocyte lipoxygenase [1]: failed to have an effect
- comparable anti-asthmatic, anti-allergic, and anti-anaphylactic effects on a whole-animal model (sensitised guinea pig): have not even been known

Structure (SMILES): CC(Cc1ccc(O)c(O)c1)C(C)Cc1ccc(O)c(O)c1 (centres unmarked) [nordihydroguaiaretic acid, reference compound]
- inhibition of rabbit reticulocyte lipoxygenase by known lipoxygenase inhibitors [1]: inhibited with high effectiveness
